According to patent US20250361217A1, “FATTY ACID COMPOUNDS” (University of Pittsburgh - Of the Commonwealth System of …, priority 2022, published 2025):

Molecular target: T1, ACLY (Mus musculus, UniProt Q91V92)
T1 construct: Proteins were extracted from the liver powder (50 mg) with 1 mL of phosphate-buffered saline; from tissue; host or cells: liver of male C57BL/6J mice (HFD, treated in vivo with vehicle or 11U3-2M)
T1 sequence (Q91V92 1-1091): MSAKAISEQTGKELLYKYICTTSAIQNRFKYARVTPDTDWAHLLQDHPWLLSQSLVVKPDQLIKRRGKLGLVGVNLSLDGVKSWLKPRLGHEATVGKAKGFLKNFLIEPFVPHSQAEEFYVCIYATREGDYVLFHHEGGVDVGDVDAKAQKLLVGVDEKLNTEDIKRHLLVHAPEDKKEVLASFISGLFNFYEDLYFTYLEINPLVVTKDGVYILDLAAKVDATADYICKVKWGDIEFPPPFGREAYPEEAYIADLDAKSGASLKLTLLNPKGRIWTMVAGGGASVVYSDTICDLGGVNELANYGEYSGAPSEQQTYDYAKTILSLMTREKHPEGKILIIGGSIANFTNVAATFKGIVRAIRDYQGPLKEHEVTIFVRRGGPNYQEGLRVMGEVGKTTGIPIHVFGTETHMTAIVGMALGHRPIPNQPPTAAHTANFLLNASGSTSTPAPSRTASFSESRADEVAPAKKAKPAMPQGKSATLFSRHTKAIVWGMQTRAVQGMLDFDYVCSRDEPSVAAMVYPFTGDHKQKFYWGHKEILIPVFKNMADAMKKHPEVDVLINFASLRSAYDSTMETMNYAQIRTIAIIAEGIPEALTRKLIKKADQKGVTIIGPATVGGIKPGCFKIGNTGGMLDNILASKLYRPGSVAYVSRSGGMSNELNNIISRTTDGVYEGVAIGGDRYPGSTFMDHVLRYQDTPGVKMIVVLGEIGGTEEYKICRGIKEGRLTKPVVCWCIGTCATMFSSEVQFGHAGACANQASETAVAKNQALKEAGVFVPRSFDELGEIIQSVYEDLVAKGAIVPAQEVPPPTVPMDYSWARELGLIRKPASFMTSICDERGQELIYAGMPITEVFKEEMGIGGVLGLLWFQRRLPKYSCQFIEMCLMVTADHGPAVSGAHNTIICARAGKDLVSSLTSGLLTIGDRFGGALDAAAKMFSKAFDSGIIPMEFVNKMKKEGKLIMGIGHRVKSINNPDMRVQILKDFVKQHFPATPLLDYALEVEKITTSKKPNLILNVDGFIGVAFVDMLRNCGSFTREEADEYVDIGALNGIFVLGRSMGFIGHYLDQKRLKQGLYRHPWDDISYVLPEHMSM
Test: Thermal shift assay of liver proteins, ACLY
Assay type: binding, mice
Protocol: The liver samples (50 mg) were homogenized and vortexed in ice-cold RIPA buffer containing phosphatase (Fisher Scientific, #PIA32957) and protease (Fisher Scientific, #PIA32953) inhibitor cocktails. Protein concentration was determined using a […] (Pierce). Protein lysates were mixed with LDS Sample Buffer (1:4) and heated for 2 min at 95° C. The lysates were then loaded and electrophoresed on a 10% Tris-Glycine eXtended (BioRad, Criterion #5671034). The proteins were electrophoretically transferred to a PVDF membrane (BioRad, #1620177), and the transfer was confirmed by staining the membrane with 0.1% Ponceau S solution (Sigma-Aldrich, #6226-79-5). The membrane was then blocked for 90 min at RT with 5% nonfat dry milk (LabScientific) or 5% BSA (MilliporeSigma) in TBS-T (tris buffered saline+0.1% Tween 20 [Thermo Fisher Scientific]). […] Quantitative densitometric analysis was performed using Image Lab software (Bio-Rad).
Thermal Shift Assay Proteins were extracted from the liver powder (50 mg) with 1 mL of phosphate-buffered saline (PBS—Gibco, Paisley, UK) containing phosphatase (Fisher Scientific, #PIA32957) and protease (Fisher Scientific, #PIA32953) inhibitors. […] The Supernatants were transferred to new tubes and analyzed by western blot as described above.

CCCc1ccc(CCCCCCCCCC(C)(C)C(=O)O)o1 [11U3-2M, 2,2-Dimethyl-11-(5-propylfuran-2-yl)undecanoic acid]
ACLY thermal stability (full cohorts, HFD+11U3-2M, higher temperature (52, 53.5, 55° C.)): greatly increased | ACLY thermal stability compared to veh (one mouse per group, 52, 53.5 and 55° C.): higher stability
